These results are taken from article PMC4993559 (Journal of Experimental Pharmacology, 2016).

Like-named read-outs stand apart in the source and are kept apart here.

The target of data set [1] is T1, ROS1 (Homo sapiens, UniProt P08922). The conditions noted are these: read-out: IC50 (class); Momelotinib scale; cited from earlier work.
Data set [2] deals with T2, c-src (Homo sapiens, UniProt P12931). The conditions noted are these: read-out: IC50 (class); Momelotinib scale; cited from earlier work.
The target of data set [3] is T3, CSF1R (c-fms) (Homo sapiens, UniProt P07333). Particulars: read-out: IC50 (class); Momelotinib scale; cited from earlier work.
Data set [4] concerns the target T4, HIPK4 (Homo sapiens, UniProt Q8NE63).
T4 sequence (Q8NE63 1-616): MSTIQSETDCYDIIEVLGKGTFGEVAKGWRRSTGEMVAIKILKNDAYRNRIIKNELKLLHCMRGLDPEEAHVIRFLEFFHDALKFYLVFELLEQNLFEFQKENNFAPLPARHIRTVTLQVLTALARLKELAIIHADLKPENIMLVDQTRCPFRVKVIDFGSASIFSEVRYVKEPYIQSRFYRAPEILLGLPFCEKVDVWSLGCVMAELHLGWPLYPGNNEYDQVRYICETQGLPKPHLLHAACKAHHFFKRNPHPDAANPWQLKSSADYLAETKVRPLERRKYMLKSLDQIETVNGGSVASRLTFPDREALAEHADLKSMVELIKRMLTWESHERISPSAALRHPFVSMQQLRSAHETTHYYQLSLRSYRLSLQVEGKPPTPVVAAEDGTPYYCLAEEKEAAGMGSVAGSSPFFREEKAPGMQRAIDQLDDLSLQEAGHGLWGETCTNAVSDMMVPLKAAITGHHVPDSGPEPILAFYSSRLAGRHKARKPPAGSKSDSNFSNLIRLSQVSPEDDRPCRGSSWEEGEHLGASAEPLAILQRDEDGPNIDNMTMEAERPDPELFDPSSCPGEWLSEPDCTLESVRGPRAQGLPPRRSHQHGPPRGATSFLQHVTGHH
The conditions noted are these: read-out: IC50 (class); Momelotinib scale; cited from earlier work.

In data set [5] the target is JAK1 (Homo sapiens, UniProt P23458). In words: HotSpot radioisotope filter-binding kinase assay. Type of data set: biochemical.
Data set [6] deals with TYK2 (Homo sapiens, UniProt P29597). In words: HotSpot radioisotope filter-binding kinase assay. Type of data set: biochemical.
Data set [7] addresses TRKC (Homo sapiens, UniProt Q16288). As to the kind of experiment: HotSpot radioisotope filter-binding kinase assay. It counts as biochemical.
The target in data set [8] is T5, TNK1 (Homo sapiens, UniProt Q13470).
T5 sequence (Q13470 1-666): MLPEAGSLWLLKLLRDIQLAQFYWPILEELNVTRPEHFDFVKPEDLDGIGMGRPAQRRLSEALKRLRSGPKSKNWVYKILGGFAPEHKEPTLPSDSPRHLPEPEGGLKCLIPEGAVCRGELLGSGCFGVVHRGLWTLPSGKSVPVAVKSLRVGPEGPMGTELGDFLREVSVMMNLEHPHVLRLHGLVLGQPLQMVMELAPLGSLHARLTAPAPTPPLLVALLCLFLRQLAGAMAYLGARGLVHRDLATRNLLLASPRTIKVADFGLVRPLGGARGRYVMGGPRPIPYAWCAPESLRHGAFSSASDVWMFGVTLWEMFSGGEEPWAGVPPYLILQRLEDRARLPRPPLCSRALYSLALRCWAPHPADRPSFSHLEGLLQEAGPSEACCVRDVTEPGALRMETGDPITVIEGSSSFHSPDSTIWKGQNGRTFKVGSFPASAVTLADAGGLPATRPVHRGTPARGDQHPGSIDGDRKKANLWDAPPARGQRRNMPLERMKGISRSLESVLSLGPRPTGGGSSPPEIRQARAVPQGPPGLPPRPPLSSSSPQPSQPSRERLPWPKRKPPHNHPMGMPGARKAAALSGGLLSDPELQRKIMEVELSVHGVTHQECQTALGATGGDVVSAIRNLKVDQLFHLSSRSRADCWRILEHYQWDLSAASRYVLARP
In words: HotSpot radioisotope filter-binding kinase assay. It counts as biochemical.

For data set [9], the target named is T1, ROS1. In words: HotSpot radioisotope filter-binding kinase assay. It counts as biochemical.
The target in data set [10] is c-kit (Homo sapiens, UniProt P10721). In words: HotSpot radioisotope filter-binding kinase assay. Type of data set: biochemical.
Data set [11] has as its target T2, c-src. In words: HotSpot radioisotope filter-binding kinase assay. Type of data set: biochemical.
In data set [12] the target is T3, CSF1R (c-fms). In words: HotSpot radioisotope filter-binding kinase assay. Type of data set: biochemical.
Data set [13] concerns the target T4, HIPK4. As to the kind of experiment: HotSpot radioisotope filter-binding kinase assay. Type of data set: biochemical.
The target in data set [14] is IRAK1 (Homo sapiens, UniProt P51617). As to the kind of experiment: HotSpot radioisotope filter-binding kinase assay. Type of data set: biochemical.
Data set [15] can be described thus: Steady-state peak plasma concentration after 400 mg daily. Type of data set: in vivo. The conditions noted are these: humans, calculated/simulated.
The test system of data set [16] is phosphorylated IRAK1. The conditions noted are these: AML cells; cited from earlier work.
Data set [17] deals with AML cell lines. The conditions noted are these: AML cell lines harboring various mutations; cited from earlier work.
Data set [18] deals with primary CMML cells. The conditions noted are these: cited from earlier work.
Setting [19] is: IC50, recombinant kinase, 10 μM ATP.

T2 sequence (P12931 whole entry): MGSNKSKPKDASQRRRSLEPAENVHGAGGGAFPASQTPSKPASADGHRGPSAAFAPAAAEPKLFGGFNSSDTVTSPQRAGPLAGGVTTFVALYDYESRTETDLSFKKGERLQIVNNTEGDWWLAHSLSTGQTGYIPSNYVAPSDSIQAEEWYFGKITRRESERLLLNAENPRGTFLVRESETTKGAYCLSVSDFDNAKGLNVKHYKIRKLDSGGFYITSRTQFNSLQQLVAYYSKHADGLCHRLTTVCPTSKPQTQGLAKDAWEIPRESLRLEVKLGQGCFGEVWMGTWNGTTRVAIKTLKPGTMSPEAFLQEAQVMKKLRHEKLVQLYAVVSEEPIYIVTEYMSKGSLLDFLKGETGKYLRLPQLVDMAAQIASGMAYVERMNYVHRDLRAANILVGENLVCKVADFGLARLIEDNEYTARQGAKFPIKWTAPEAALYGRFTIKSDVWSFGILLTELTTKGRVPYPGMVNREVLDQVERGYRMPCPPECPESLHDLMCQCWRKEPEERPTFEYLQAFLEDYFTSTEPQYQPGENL
Chain of JAK1 (P23458 whole entry): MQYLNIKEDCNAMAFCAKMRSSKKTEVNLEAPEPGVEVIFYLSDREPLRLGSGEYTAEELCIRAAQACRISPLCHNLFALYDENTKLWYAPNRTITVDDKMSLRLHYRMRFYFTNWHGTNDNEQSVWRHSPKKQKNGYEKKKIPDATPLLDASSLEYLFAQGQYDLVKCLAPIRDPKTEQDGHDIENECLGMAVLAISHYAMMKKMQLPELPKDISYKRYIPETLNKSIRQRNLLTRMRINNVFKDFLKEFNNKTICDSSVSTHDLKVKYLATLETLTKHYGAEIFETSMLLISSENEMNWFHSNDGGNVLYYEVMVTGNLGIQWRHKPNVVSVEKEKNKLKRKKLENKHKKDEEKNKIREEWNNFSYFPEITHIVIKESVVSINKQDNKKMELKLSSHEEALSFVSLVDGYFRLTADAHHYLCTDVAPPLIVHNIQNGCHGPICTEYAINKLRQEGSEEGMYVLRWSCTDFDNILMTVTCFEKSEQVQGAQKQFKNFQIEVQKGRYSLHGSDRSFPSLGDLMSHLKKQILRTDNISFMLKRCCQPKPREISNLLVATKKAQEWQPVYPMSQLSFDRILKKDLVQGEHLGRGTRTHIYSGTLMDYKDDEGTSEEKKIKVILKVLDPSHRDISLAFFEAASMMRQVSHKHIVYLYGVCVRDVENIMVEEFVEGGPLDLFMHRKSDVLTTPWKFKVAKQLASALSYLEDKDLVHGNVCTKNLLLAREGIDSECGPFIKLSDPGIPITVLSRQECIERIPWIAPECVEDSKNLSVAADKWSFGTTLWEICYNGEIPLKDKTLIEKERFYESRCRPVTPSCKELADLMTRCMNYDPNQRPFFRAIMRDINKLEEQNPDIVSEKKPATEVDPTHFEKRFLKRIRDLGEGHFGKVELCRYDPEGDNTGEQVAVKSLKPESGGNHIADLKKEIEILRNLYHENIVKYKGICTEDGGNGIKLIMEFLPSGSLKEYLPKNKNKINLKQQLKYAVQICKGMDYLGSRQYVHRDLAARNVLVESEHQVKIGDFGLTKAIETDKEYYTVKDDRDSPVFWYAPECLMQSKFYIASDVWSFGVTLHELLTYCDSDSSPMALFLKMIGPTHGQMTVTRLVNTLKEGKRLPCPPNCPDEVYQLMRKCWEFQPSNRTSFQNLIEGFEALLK
T3 sequence (P07333 20-972): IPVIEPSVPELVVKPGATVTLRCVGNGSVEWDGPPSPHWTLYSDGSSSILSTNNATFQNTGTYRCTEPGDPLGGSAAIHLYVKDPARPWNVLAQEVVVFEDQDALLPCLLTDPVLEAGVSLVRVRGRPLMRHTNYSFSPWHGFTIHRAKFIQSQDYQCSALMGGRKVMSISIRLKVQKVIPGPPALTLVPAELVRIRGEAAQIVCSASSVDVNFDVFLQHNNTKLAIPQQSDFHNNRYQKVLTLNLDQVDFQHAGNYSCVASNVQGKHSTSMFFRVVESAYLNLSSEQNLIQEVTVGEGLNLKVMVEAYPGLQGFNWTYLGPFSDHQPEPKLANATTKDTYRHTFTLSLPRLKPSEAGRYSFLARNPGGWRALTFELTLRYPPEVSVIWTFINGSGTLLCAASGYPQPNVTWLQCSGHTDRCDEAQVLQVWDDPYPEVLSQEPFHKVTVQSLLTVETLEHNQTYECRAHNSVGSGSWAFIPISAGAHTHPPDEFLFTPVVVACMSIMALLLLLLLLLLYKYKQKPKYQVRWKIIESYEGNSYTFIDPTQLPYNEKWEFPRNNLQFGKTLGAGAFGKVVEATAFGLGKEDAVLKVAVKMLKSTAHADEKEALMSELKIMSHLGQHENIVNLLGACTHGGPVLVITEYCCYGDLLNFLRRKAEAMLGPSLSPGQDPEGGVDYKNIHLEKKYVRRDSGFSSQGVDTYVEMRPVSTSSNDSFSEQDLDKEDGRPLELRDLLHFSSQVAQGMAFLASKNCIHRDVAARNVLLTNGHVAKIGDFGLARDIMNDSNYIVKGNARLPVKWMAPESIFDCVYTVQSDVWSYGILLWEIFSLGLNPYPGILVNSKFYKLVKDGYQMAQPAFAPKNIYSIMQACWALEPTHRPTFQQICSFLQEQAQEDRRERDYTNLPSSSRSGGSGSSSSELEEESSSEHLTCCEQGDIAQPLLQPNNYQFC
T1 sequence (P08922 28-2347): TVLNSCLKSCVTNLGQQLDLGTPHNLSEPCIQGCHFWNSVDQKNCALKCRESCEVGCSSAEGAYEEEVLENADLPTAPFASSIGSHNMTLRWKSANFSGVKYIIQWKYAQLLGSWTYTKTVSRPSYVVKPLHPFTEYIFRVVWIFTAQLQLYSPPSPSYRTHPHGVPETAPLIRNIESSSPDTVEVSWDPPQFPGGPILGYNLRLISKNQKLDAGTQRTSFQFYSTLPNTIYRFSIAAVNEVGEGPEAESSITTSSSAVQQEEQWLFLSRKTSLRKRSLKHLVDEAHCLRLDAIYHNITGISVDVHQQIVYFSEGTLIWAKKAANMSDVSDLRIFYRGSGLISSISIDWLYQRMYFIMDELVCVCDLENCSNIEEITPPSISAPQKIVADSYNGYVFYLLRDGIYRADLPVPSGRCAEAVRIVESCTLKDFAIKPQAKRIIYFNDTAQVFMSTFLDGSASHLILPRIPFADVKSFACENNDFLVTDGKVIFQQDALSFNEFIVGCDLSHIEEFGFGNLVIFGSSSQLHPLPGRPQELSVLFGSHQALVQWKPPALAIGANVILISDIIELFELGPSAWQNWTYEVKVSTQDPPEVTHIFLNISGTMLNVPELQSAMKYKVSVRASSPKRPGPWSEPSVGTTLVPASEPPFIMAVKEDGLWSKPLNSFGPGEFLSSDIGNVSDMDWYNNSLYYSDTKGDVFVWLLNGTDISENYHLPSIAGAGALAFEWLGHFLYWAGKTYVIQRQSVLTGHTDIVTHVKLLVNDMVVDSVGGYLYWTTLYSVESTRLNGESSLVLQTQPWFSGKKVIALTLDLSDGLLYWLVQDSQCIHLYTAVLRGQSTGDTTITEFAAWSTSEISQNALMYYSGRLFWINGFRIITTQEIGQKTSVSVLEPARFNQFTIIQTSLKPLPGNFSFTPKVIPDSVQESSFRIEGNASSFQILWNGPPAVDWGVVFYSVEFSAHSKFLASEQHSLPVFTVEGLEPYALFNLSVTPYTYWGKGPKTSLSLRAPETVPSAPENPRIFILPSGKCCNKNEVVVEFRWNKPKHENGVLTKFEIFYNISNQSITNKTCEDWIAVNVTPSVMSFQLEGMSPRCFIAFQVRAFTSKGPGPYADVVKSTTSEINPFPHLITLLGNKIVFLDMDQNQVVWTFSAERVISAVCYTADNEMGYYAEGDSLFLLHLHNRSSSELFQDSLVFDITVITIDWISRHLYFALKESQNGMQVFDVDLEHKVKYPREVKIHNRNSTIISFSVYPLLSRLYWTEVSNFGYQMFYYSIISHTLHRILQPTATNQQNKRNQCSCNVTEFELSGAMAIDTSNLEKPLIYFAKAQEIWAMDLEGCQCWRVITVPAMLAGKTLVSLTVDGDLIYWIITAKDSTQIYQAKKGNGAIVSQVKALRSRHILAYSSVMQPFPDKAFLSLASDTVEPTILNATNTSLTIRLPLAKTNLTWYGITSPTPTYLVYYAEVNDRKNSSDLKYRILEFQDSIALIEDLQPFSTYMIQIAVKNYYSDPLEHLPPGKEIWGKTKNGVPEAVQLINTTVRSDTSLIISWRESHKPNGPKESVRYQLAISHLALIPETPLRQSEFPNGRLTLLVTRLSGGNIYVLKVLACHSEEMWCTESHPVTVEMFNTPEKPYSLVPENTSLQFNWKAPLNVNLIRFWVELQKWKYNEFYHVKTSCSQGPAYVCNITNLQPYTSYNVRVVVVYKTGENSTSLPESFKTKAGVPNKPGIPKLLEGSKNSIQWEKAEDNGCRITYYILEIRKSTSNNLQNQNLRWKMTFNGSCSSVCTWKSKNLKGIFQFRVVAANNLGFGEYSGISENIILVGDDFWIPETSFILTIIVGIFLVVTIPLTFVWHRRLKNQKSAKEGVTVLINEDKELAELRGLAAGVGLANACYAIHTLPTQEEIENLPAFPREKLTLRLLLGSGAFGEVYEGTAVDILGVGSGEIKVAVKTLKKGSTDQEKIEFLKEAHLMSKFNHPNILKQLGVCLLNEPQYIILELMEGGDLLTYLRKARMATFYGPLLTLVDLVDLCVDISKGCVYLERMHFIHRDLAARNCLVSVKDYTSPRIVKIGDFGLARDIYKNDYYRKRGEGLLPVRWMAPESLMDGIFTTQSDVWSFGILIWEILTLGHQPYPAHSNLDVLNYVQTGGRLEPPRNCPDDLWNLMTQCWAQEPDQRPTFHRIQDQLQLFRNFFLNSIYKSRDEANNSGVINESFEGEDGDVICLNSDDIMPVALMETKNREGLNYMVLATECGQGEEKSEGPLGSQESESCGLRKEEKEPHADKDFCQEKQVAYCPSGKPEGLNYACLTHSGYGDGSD

For `N#CCNC(=O)c1ccc(-c2ccnc(Nc3ccc(N4CCOCC4)cc3)n2)cc1` [Momelotinib], the IC50 (in general, the concentration at which inhibition is half-maximal) in data set [1] is < 1000 nM; in data set [2] it was > 1000 nM; in data set [3], < 1000 nM; in data set [4] it was < 1000 nM.
As to `C1=C/COCc2cc(ccc2OCCN2CCCC2)Nc2nccc(n2)-c2cccc(c2)COC/1` [Pacritinib, 11-(2-pyrrolidin-1-yl-ethoxy)-14,19-dioxa-5,7,26-triaza-tetracyclo[19.3.1.1(2,6). 1(8,12)]heptacosa-1(25),2(26),3,5,8,10,12(27),16,21,23-decaene], the IC50 is > 100 nM in data set [5]; “Indeterminate” in [5] (recombinant kinase, 10 μM ATP); 25 to 50 nM in data set [6] (IC50 (class), Pacritinib scale); 27 nM in data set [6] (setting [19]); < 25 nM in [7] (IC50 (class), Pacritinib scale); 18.4 nM in [7] (setting [19]). Further, the IC50 in [8] (IC50 (class), Pacritinib scale) is < 25 nM; in data set [8] (setting [19]) it was 15 nM; in [9] (IC50 (class), Pacritinib scale) it was < 25 nM; in data set [9] (setting [19]) it was 18.4 nM; in [10] (IC50 (class), Pacritinib scale), 25 to 50 nM; in data set [10] (setting [19]) it was 43.8 nM. The half-maximal inhibitory concentration (IC50) was 25 to 50 nM in data set [11] (IC50 (class), Pacritinib scale); 46.7 nM in [11] (setting [19]); 25 to 50 nM in [12] (IC50 (class), Pacritinib scale); < 50 nM in [12] (setting [19]); < 25 nM in data set [13] (IC50 (class), Pacritinib scale); 14.5 nM in data set [13] (setting [19]). Also, the IC50 in [14] (IC50 (class), Pacritinib scale) was < 25 nM; in data set [14] (setting [19]), 13.6 nM. Moreover, in [5] (read-out: kinase activity remaining (% control)), the remaining activity (in general, the signal under treatment as a percentage of the control signal) at 0.1 µM amounted to 82%. The total steady-state levels in [15] is 5 to 7 µM. Besides, in [15] (oral), the “mean peak plasma concentration of free drug at steady state” value is reported as “approximately 200 nM”. In addition, in data set [16], the “phosphorylation of IRAK1” value is on record as “inhibits the phosphorylation of IRAK1”. The viability and survival result in [17] is “reduces both the viability and survival”. In addition, in data set [18], the “activity combined with 5-azacitidine” value is “synergistic activity”.
